Data: patent publication US20040166178A1, “3-O-acetyl-11-ketoboswellic acid for relaxing the skin” (L'OREAL, priority 2003, published 2004)

Legend:
[1] = system: human striated muscle cells innervated with explants of spinal cord and spinal ganglia from rat embryos; test: nerve-muscle coculture model, inhibition of muscle fibre contractions; format: cell-based; settings: for contraction-inhibiting effect: test identical to Example 1
Method: Three extracts of Boswellia serrata were tested on a nerve-muscle coculture model which makes it possible to recreate a motor arc by innovating human striated muscle cells with explants of spinal cord and of spinal ganglia from rat embryos.
Human muscle cells derived from human muscle samples from a healthy donor are seeded in 15 mm-diameter wells (24-well culture dishes). After culturing for 10 days, these cells form a monolayer and fuse. At this stage, spinal cord explants from 13-day-old rat embryos, containing the spinal ganglion, are deposited onto the culture.
The first muscle fibre contractions are observed after coculturing for one week.
A muscle fibre having regular contractions (at least 60 contractions per minute) is then selected in three different culture wells and the number of contractions is counted over 30 seconds using image analysis software. The extracts tested, diluted in ethanol, are then incubated for 60 seconds in these wells, at the concentrations C1 and C2 of 0.005% and 0.01%. At the end of the incubation, the number of contractions is again counted over 30 seconds.
The percentage of inhibited contractions is then determined.

calcium channels = test: model of calcium flux; format: cell-based; settings: compared with beta-boswellic acid, 3-O-acetylboswellic acid and 11-ketoboswellic acid
Method: The four pentacyclic triterpene acids contained, according to the literature, in extract of Boswellia serrata, namely beta-boswellic acid, 3-O-acetylboswellic acid, 11-ketoboswellic acid and 3-O-acetyl-11-ketoboswellic acid, were tested in a model of calcium flux in order to evaluate their capacity for inhibiting calcium channels and therefore their ability to relax lines and smooth out expression lines.

[2] = anti-wrinkle activity in vivo

Compound | contraction-inhibiting effect ([1]; 5 μM) [%] | contraction-inhibiting effect ([1]; 10 μM) [%] | relaxing effect (capacity for inhibiting calcium channels) (calcium channels) | anti-wrinkle activity [2] | muscle fibre contractions ([1]; earlier demonstration by the applicant)
CC(=O)O[C@@H]1CC[C@@]2(C)[C@@H](CC[C@]3(C)[C@@H]2C(=O)C=C2[C@@H]4[C@@H](C)[C@H](C)CC[C@]4(C)CC[C@]23C)[C@@]1(C)C(=O)O [3-O-acetyl-11-ketoboswellic acid] | 74.7 | 87 | clearly greater than that obtained for the other three acids tested |  | 
CN1C(=O)CN=C(c2ccccc2)c2cc(Cl)ccc21 [diazepam, reference compound] |  |  |  | demonstrated in vivo | inhibited muscle fibre contractions
